Results reported in publication PMC13031062 (Acta Pharmaceutica Sinica. B, 2025).
Like-named read-outs stand apart in the source and are kept apart here.

Tests used:
[1] = molecular target: T1, acyl-CoA synthetase long-chain family member 3 (ACSL3) (Homo sapiens, UniProt O95573); assay: microscale thermophoresis; assay type: binding
[2] = molecular target: T1, acyl-CoA synthetase long-chain family member 3 (ACSL3); assay: microscale thermophoresis; assay type: binding; remark: listed apart in the source
[3] = molecular target: T1, acyl-CoA synthetase long-chain family member 3 (ACSL3); assay: LC-MS of OA-CoA formed by recombinant ACSL3; assay type: biochemical
[4] = molecular target: T1, acyl-CoA synthetase long-chain family member 3 (ACSL3); assay: microscale thermophoresis; assay type: binding; remark: listed apart in the source

T1 sequence (O95573 whole entry): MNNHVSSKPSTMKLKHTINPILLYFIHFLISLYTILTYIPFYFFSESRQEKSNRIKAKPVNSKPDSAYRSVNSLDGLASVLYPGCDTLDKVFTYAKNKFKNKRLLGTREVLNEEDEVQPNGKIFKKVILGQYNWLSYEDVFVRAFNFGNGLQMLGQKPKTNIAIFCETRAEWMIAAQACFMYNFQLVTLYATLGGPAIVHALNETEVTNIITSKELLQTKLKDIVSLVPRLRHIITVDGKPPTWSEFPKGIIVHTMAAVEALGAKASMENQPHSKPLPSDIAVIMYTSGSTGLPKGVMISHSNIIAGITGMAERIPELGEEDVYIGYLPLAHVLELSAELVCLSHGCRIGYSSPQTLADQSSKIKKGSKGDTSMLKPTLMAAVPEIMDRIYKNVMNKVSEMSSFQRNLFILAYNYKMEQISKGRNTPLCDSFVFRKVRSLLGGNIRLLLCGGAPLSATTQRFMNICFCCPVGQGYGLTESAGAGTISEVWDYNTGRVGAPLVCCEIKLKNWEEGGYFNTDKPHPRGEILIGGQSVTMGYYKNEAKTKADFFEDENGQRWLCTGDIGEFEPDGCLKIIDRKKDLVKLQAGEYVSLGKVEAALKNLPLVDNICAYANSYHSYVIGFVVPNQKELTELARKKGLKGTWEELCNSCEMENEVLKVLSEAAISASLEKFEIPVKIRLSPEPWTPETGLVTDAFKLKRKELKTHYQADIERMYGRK

CNC(=O)/C=C(C)/C=C/C=C(C)/C=C/C1=C(C)CCCC1(C)C [D3, (2E,4E,6E,8E)-N,3,7-trimethyl-9-(2,6,6-trimethylcyclohex-1-en-1-yl)nona-2,4,6,8-tetraenamide]
Kd [1]: 1280 nM

CC1=C(/C=C/C(C)=C/C=C/C(C)=C/C(=O)O)C(C)(C)CCC1 [ATRA, all-trans retinoic acid]
Kd [2]: 12800 nM

CCCCCCCC/C=C\CCCCCCCC(=O)O [OA, oleic acid]
LC-MS of OA-CoA formed by recombinant ACSL3 [3]: VA analogues promoted acylation reaction with OA as substrate in the presence of ACSL3

CC1=C(/C=C/C(C)=C/C=C/C(C)=C/CO)C(C)(C)CCC1 [VA, vitamin A]
Kd [4]: 1850 nM
